“And” between values parts separate entries of the source, which are not always exact repeats. Identical values can stand only once. “Also recorded” adds a separate entry of the source. Where a SMILES comes first, the peptide text is derived from it. [ ]: non-standard residue; d: D form. The star is where a group is joined. Paclitaxel(2'-O-succinyl) = CC(=O)O[C@H]1C(=O)[C@@]2(C)[C@H]([C@H](OC(=O)c3ccccc3)[C@]3(O)C[C@H](OC(=O)[C@H](OC(=O)CCC(=O)*)[C@@H](NC(=O)c4ccccc4)c4ccccc4)C(C)=C1C3(C)C)[C@]1(OC(C)=O)CO[C@@H]1C[C@@H]2O; Acetyl(2-naphthyl) = O=C(Cc1ccc2ccccc2c1)*; pY = N[C@@H](Cc1ccc(OP(=O)(O)O)cc1)C(=O)O
Legend:
[1] = tested on: HeLa cells; assay: cytotoxicity against HeLa cells
Excerpt: To evaluate the activity of 5a, it was used to treat HeLa cells; paclitaxel (1) was used as the control.

[2] = stability in water and in gel state; type: physicochemical
Excerpt: Nicolaou, K. C.; Guy, R. K.; Pitsinos, E. N.; Wrasidlo, W. Angew. Chem. Intl. Ed.

[3] = solubility; type: physicochemical

CC(=O)O[C@H]1C(=O)[C@@]2(C)[C@H]([C@H](OC(=O)c3ccccc3)[C@]3(O)C[C@H](OC(=O)[C@H](O)[C@@H](NC(=O)c4ccccc4)c4ccccc4)C(C)=C1C3(C)C)[C@]1(OC(C)=O)CO[C@@H]1C[C@@H]2O [Compound 1, Paclitaxel, reference compound] gave an IC50 ([1]; Homo sapiens, HeLa, 48 h) of 47.3 ± 2.99 nM.
For NCCCC[C@H](NC(=O)[C@H](Cc1ccccc1)NC(=O)[C@H](Cc1ccccc1)NC(=O)Cc1ccc2ccccc2c1)C(=O)N[C@@H](Cc1ccc(OP(=O)(O)O)cc1)C(=O)O [Compound 4, NapFFKYp] ({Acetyl(2-naphthyl)}-FFK[pY]-OH), the cytotoxicity in words ([1]; HeLa cells) was “essentially biocompatible; also recorded: very limited toxicity” and the IC50 ([1]; HeLa cells, 48 h, highest concentration tested 500 μM) was > 500000 nM.
In the case of CC(=O)O[C@H]1C(=O)[C@@]2(C)[C@H]([C@H](OC(=O)c3ccccc3)[C@]3(O)C[C@H](OC(=O)[C@H](OC(=O)CCC(=O)NCCCC[C@H](NC(=O)[C@H](Cc4ccccc4)NC(=O)[C@H](Cc4ccccc4)NC(=O)Cc4ccc5ccccc5c4)C(=O)N[C@@H](Cc4ccc(OP(=O)(O)O)cc4)C(=O)O)[C@@H](NC(=O)c4ccccc4)c4ccccc4)C(C)=C1C3(C)C)[C@]1(OC(C)=O)CO[C@@H]1C[C@@H]2O [Compound 5a] ({Acetyl(2-naphthyl)}-FFK(Paclitaxel(2'-O-succinyl))[pY]-OH), the stability in water ([2]; in water, without a phosphatase) is reported as “hardly any dephosphorylation over months”, the solubility ([3]; 100 mM phosphate buffered saline (PBS) solution) is reported as 7600 µg/mL and 4260 µM and the IC50 ([1]; HeLa cells, 48 h of incubation) is reported as 9.97 ± 2.05 nM.
For CC(=O)O[C@H]1C(=O)[C@@]2(C)[C@H]([C@H](OC(=O)c3ccccc3)[C@]3(O)C[C@H](OC(=O)[C@H](OC(=O)CCC(=O)NCCCC[C@H](NC(=O)[C@H](Cc4ccccc4)NC(=O)[C@H](Cc4ccccc4)NC(=O)Cc4ccc5ccccc5c4)C(=O)N[C@@H](Cc4ccc(O)cc4)C(=O)O)[C@@H](NC(=O)c4ccccc4)c4ccccc4)C(C)=C1C3(C)C)[C@]1(OC(C)=O)CO[C@@H]1C[C@@H]2O [Compound 5b] ({Acetyl(2-naphthyl)}-FFK(Paclitaxel(2'-O-succinyl))Y-OH), the “stability in gel state” value ([2]; gel state, mass spectroscopic (MS) analysis) was “stable in gel state over weeks”, the solubility ([3]; in water) was 21.6 µg/mL and 12.7 µM and the IC50 ([1]; HeLa cells, 48 h of incubation) was 51.4 ± 7.69 nM.

— patent US9408921B2, “Antineoplastic hydrogels, and enzyme-instructed preparations thereof” (Brandeis University, priority 2009, dated 2016)
